The values below come from patent US20220323406A1, “METHODS AND COMPOSITIONS FOR DIFFERENTIATING STEM CELLS” (Massachusetts Institute of Technology, priority 2019, published 2022).

One assay has as its system ENR+CD organoids. The assay is described as follows: Primary screen: ATP (CellTiter-Glo 3D, CTG) cell number/viability, 2.5-D 384-well ENR+CD organoids.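 As to all read-outs here: compounds given at plating and again on day 3 over a 6-day differentiation from ENR+CV stem-cell-enriched precursors, ATP measured on day 6, plate median as control.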 The settings on record: primary screen; for Z.CTG: standard z score; for Dose.FC.CTG: FC vs plate median.
Assay [1] has as its system ENR+CD organoids (ISC to Paneth cell differentiation). The assay is described as follows: Primary screen: CCh-stimulated lysozyme secretion LYZ.S, 2.5-D 384-well ENR+CD organoid differentiation. Particulars: primary screen, FC vs plate median. In kind it is cell-based, mouse. The text has this:
(§1) High-throughput screening.

The test system is the same in assay [2]. The assay is described as follows: Primary screen: basal (non-stimulated) lysozyme secretion LYZ.NS, 2.5-D 384-well ENR+CD organoid differentiation. Particulars: primary screen; for Z.LYZ.NS: standard z score; for Dose.FC.LYZ.NS: FC vs plate median. In kind it is cell-based, mouse.
Excerpt: as §1

Take `CN1C(=O)C(Cc2c[nH]c3ccccc23)NC1=S` (stereo not shown) [Necrostatin-1]: the Z.CTG in the assay with ENR+CD organoids (dose 0.08 uM) was found to be 0.244; with ENR+CD organoids (dose 0.40 uM), 0.401; with ENR+CD organoids (dose 2.00 uM) it was 0.027; in the assay on ENR+CD organoids (dose 10.00 uM) it was 0.328. Further, the Dose.FC.CTG in the assay on ENR+CD organoids (dose 0.08 uM) is on record as 0.102 log2 fold change; in the assay on ENR+CD organoids (dose 0.40 uM), 0.168 log2 fold change; with ENR+CD organoids (dose 2.00 uM), 0.011 log2 fold change; with ENR+CD organoids (dose 10.00 uM) it was 0.137 log2 fold change. Moreover, the Dose.FC.LYZ.S was 0.077 log2 fold change in assay [1] (dose 0.08 uM), 0.038 log2 fold change in assay [1] (dose 0.40 uM), 0.092 log2 fold change in assay [1] (dose 2.00 uM) and 0.229 log2 fold change in assay [1] (dose 10.00 uM). The Z.LYZ.NS is recorded as 0.524 in assay [2] (dose 0.08 uM), 0.174 in assay [2] (dose 0.40 uM), 1.338 in assay [2] (dose 2.00 uM) and 0.496 in assay [2] (dose 10.00 uM). The Dose.FC.LYZ.NS in assay [2] (dose 0.08 uM) is 0.060 log2 fold change; in assay [2] (dose 0.40 uM), 0.020 log2 fold change; in assay [2] (dose 2.00 uM), 0.154 log2 fold change; in assay [2] (dose 10.00 uM) it was 0.057 log2 fold change.
Turning to `COC(=O)C1=C(C#N)NC(C)=C(C(=O)OC(C)C)C1c1cccc([N+](=O)[O-])c1` (stereo not shown) [Nilvadipine], the Dose.FC.CTG came to 0.206 log2 fold change in the assay with ENR+CD organoids (dose 0.08 uM), 0.135 log2 fold change with ENR+CD organoids (dose 0.40 uM), 0.212 log2 fold change in the assay with ENR+CD organoids (dose 2.00 uM) and 0.192 log2 fold change in the assay with ENR+CD organoids (dose 10.00 uM). Also, the Dose.FC.LYZ.S is 0.088 log2 fold change in assay [1] (dose 0.08 uM), 0.013 log2 fold change in assay [1] (dose 0.40 uM), 0.071 log2 fold change in assay [1] (dose 2.00 uM) and −0.008 log2 fold change in assay [1] (dose 10.00 uM). Moreover, the Z.LYZ.NS in assay [2] (dose 0.08 uM) was 0.857; in assay [2] (dose 0.40 uM), 0.034; in assay [2] (dose 2.00 uM) it was 0.500; in assay [2] (dose 10.00 uM), 0.082. In addition, the Dose.FC.LYZ.NS in assay [2] (dose 0.08 uM) worked out at 0.098 log2 fold change; in assay [2] (dose 0.40 uM) it was 0.004 log2 fold change; in assay [2] (dose 2.00 uM), 0.057 log2 fold change; in assay [2] (dose 10.00 uM), 0.009 log2 fold change.
In the case of `Cc1c(Cc2ccc3ccccc3n2)c2cc(F)ccc2n1CC(=O)O` [OC000459], the Dose.FC.CTG in the assay on ENR+CD organoids (dose 0.08 uM) was 0.077 log2 fold change; in the assay on ENR+CD organoids (dose 0.40 uM), −0.065 log2 fold change; with ENR+CD organoids (dose 2.00 uM), 0.088 log2 fold change; with ENR+CD organoids (dose 10.00 uM), 0.088 log2 fold change. The Dose.FC.LYZ.S in assay [1] (dose 0.08 uM) worked out at 0.090 log2 fold change; in assay [1] (dose 0.40 uM), 0.199 log2 fold change; in assay [1] (dose 2.00 uM) it was 0.130 log2 fold change; in assay [1] (dose 10.00 uM), 0.051 log2 fold change. The Z.LYZ.NS was found to be 0.416 in assay [2] (dose 0.08 uM), 0.461 in assay [2] (dose 0.40 uM), 0.507 in assay [2] (dose 2.00 uM) and 0.287 in assay [2] (dose 10.00 uM). Also, the Dose.FC.LYZ.NS in assay [2] (dose 0.08 uM) is on record as 0.048 log2 fold change; in assay [2] (dose 0.40 uM), 0.053 log2 fold change; in assay [2] (dose 2.00 uM) it was 0.058 log2 fold change; in assay [2] (dose 10.00 uM), 0.033 log2 fold change.
For `C#Cc1cccc(Nc2ncnc3cc(OCCOC)c(OCCO)cc23)c1` [OSI-420], the Z.CTG with ENR+CD organoids (dose 0.08 uM) is 0.254; with ENR+CD organoids (dose 0.40 uM), −0.311; with ENR+CD organoids (dose 2.00 uM), −3.016; in the assay with ENR+CD organoids (dose 10.00 uM), −2.627. Besides, the Dose.FC.CTG is 0.106 log2 fold change in the assay on ENR+CD organoids (dose 0.08 uM), −0.130 log2 fold change in the assay on ENR+CD organoids (dose 0.40 uM), −1.263 log2 fold change with ENR+CD organoids (dose 2.00 uM) and −1.100 log2 fold change with ENR+CD organoids (dose 10.00 uM). The Dose.FC.LYZ.S in assay [1] (dose 0.08 uM) is on record as 0.059 log2 fold change; in assay [1] (dose 0.40 uM), −0.221 log2 fold change; in assay [1] (dose 2.00 uM), −0.381 log2 fold change; in assay [1] (dose 10.00 uM) it was −0.374 log2 fold change. The Z.LYZ.NS is 1.002 in assay [2] (dose 0.08 uM), −1.948 in assay [2] (dose 0.40 uM), −2.498 in assay [2] (dose 2.00 uM) and −2.833 in assay [2] (dose 10.00 uM). Further, the Dose.FC.LYZ.NS was 0.115 log2 fold change in assay [2] (dose 0.08 uM), −0.224 log2 fold change in assay [2] (dose 0.40 uM), −0.287 log2 fold change in assay [2] (dose 2.00 uM) and −0.325 log2 fold change in assay [2] (dose 10.00 uM).
Take `C[C@]1(O)C[C@@H](c2nc(-c3ccc4ccc(-c5ccccc5)nc4c3)c3c(N)nccn32)C1` [OSI-906 (Linsitinib)]: the Z.CTG is −0.775 in the assay on ENR+CD organoids (dose 0.08 uM), −0.377 in the assay on ENR+CD organoids (dose 0.40 uM), −0.661 in the assay with ENR+CD organoids (dose 2.00 uM) and −0.934 in the assay on ENR+CD organoids (dose 10.00 uM). For the same compound, the Dose.FC.CTG in the assay with ENR+CD organoids (dose 0.08 uM) is given as −0.324 log2 fold change; in the assay on ENR+CD organoids (dose 0.40 uM), −0.158 log2 fold change; in the assay on ENR+CD organoids (dose 2.00 uM) it was −0.277 log2 fold change; with ENR+CD organoids (dose 10.00 uM), −0.391 log2 fold change. Besides, the Dose.FC.LYZ.S in assay [1] (dose 0.08 uM) is recorded as −0.026 log2 fold change; in assay [1] (dose 0.40 uM) it was −0.119 log2 fold change; in assay [1] (dose 2.00 uM) it was −0.288 log2 fold change; in assay [1] (dose 10.00 uM), −0.328 log2 fold change. The Z.LYZ.NS in assay [2] (dose 0.08 uM) is listed as 0.110; in assay [2] (dose 0.40 uM) it was −0.806; in assay [2] (dose 2.00 uM), −1.882; in assay [2] (dose 10.00 uM), −1.996. Also, the Dose.FC.LYZ.NS in assay [2] (dose 0.08 uM) is listed as 0.013 log2 fold change; in assay [2] (dose 0.40 uM), −0.093 log2 fold change; in assay [2] (dose 2.00 uM), −0.216 log2 fold change; in assay [2] (dose 10.00 uM) it was −0.229 log2 fold change.
Regarding `NCC(=O)Nc1ccc(-n2nc(C(F)(F)F)cc2-c2ccc3c(ccc4ccccc43)c2)cc1` [OSU-03012 (AR-12)], the Z.CTG in the assay with ENR+CD organoids (dose 0.08 uM) came out at 0.491; with ENR+CD organoids (dose 0.40 uM), 0.272; in the assay on ENR+CD organoids (dose 2.00 uM) it was 0.556; in the assay with ENR+CD organoids (dose 10.00 uM), 0.185. Moreover, the Dose.FC.CTG with ENR+CD organoids (dose 0.08 uM) is reported as 0.205 log2 fold change; in the assay on ENR+CD organoids (dose 0.40 uM), 0.114 log2 fold change; in the assay with ENR+CD organoids (dose 2.00 uM), 0.233 log2 fold change; in the assay with ENR+CD organoids (dose 10.00 uM) it was 0.078 log2 fold change. Moreover, the Dose.FC.LYZ.S in assay [1] (dose 0.08 uM) is 0.126 log2 fold change; in assay [1] (dose 0.40 uM), 0.113 log2 fold change; in assay [1] (dose 2.00 uM), 0.060 log2 fold change; in assay [1] (dose 10.00 uM), −0.128 log2 fold change. Further, the Z.LYZ.NS in assay [2] (dose 0.08 uM) was 0.755; in assay [2] (dose 0.40 uM), 0.285; in assay [2] (dose 2.00 uM), 0.460; in assay [2] (dose 10.00 uM) it was −0.423. In addition, the Dose.FC.LYZ.NS in assay [2] (dose 0.08 uM) is reported as 0.087 log2 fold change; in assay [2] (dose 0.40 uM) it was 0.033 log2 fold change; in assay [2] (dose 2.00 uM), 0.053 log2 fold change; in assay [2] (dose 10.00 uM), −0.049 log2 fold change.
`Cc1sc2c(c1C)C(c1ccc(Cl)cc1)=N[C@@H](CC(=O)Nc1ccc(O)cc1)c1nnc(C)n1-2` [OTX015]: the Dose.FC.CTG in the assay on ENR+CD organoids (dose 0.08 uM) is −0.038 log2 fold change; in the assay with ENR+CD organoids (dose 0.40 uM), −0.398 log2 fold change; in the assay on ENR+CD organoids (dose 2.00 uM) it was −0.686 log2 fold change; in the assay with ENR+CD organoids (dose 10.00 uM), −0.908 log2 fold change. The Dose.FC.LYZ.S in assay [1] (dose 0.08 uM) is listed as −0.279 log2 fold change; in assay [1] (dose 0.40 uM), −0.350 log2 fold change; in assay [1] (dose 2.00 uM), −0.350 log2 fold change; in assay [1] (dose 10.00 uM), −0.362 log2 fold change. The Z.LYZ.NS in assay [2] (dose 0.08 uM) was −1.726; in assay [2] (dose 0.40 uM) it was −2.317; in assay [2] (dose 2.00 uM), −2.082; in assay [2] (dose 10.00 uM), −2.225. Also, the Dose.FC.LYZ.NS in assay [2] (dose 0.08 uM) was −0.198 log2 fold change; in assay [2] (dose 0.40 uM) it was −0.266 log2 fold change; in assay [2] (dose 2.00 uM), −0.239 log2 fold change; in assay [2] (dose 10.00 uM) it was −0.256 log2 fold change.
Turning to `CC(C)(F)C[C@H](N[C@@H](c1ccc(-c2ccc(S(C)(=O)=O)cc2)cc1)C(F)(F)F)C(=O)NC1(C#N)CC1` [Odanacatib (MK-0822)], the Z.CTG with ENR+CD organoids (dose 0.08 uM) is given as 0.285; in the assay on ENR+CD organoids (dose 0.40 uM) it was 0.496; in the assay on ENR+CD organoids (dose 2.00 uM), −0.020; with ENR+CD organoids (dose 10.00 uM) it was 0.015. For the same compound, the Dose.FC.CTG in the assay with ENR+CD organoids (dose 0.08 uM) is on record as 0.119 log2 fold change; with ENR+CD organoids (dose 0.40 uM), 0.208 log2 fold change; in the assay with ENR+CD organoids (dose 2.00 uM) it was −0.008 log2 fold change; in the assay on ENR+CD organoids (dose 10.00 uM), 0.006 log2 fold change. Further, the Dose.FC.LYZ.S in assay [1] (dose 0.08 uM) is reported as 0.091 log2 fold change; in assay [1] (dose 0.40 uM), 0.170 log2 fold change; in assay [1] (dose 2.00 uM) it was 0.036 log2 fold change; in assay [1] (dose 10.00 uM), −0.074 log2 fold change. Moreover, the Z.LYZ.NS in assay [2] (dose 0.08 uM) was 0.752; in assay [2] (dose 0.40 uM), 1.409; in assay [2] (dose 2.00 uM), 0.212; in assay [2] (dose 10.00 uM), −0.307. For the same compound, the Dose.FC.LYZ.NS in assay [2] (dose 0.08 uM) is 0.086 log2 fold change; in assay [2] (dose 0.40 uM) it was 0.162 log2 fold change; in assay [2] (dose 2.00 uM), 0.024 log2 fold change; in assay [2] (dose 10.00 uM), −0.035 log2 fold change.
